Laboratory results published in ChEMBL document CHEMBL4007424, “Design and Synthesis of Enantiomerically Pure Decahydroquinoxalines as Potent and Selective κ-Opioid Receptor Agonists with Anti-Inflammatory Activity in Vivo” (J Med Chem, 2017).
The source made the active and inactive calls. No cut-off for these calls is given here.

Experiments:
[1] = target: Kappa-type opioid receptor (Cavia porcellus, UniProt P41144); experiment: Displacement of [3H]U-69,593 from kappa-type opioid receptor in guinea pig brain membranes after 120 mins by solid scintillation counting; format: cell membranes, Membrane
Mu-type opioid receptor = Mu-type opioid receptor (Cavia porcellus, UniProt P97266); experiment: Displacement of [3H]DAMGO from mu-type opioid receptor in guinea pig brain membranes after 120 mins by solid scintillation counting; format: cell membranes, Membrane
[2] = Displacement of [3H]-(+)-MK 801 from PCP binding site of NMDA receptor in pig brain cortex membranes after 120 mins by solid scintillation counting; format: cell membranes, Sus scrofa
[3] = Displacement of [3H]DPDPE from delta-type opioid receptor in guinea pig brain membranes after 120 mins by solid scintillation counting; format: cell membranes, Cavia porcellus, Membrane
[4] = target: T1, Kappa-type opioid receptor (Homo sapiens, UniProt P41145); experiment: Agonist activity at recombinant human kappa-type opioid receptor expressed in HEK293 cells after 30 mins by [35S]GTPgammaS binding assay; format: functional, cell-based
Mus musculus [5] = experiment: Antiinflammatory activity in arachidonic acid-induced ear dermatitis ICR mouse model assessed as reduction in ear swelling at 3 mg administered twice tropically 30 mins prior and 15 mins after arachidonic acid addition measured 60 mins post arachidonic acid challenge relative to control; format: functional
Mus musculus [6] = experiment: Antiinflammatory activity in arachidonic acid-induced ear dermatitis ICR mouse model assessed as reduction in ear swelling at 0.1 mg administered twice tropically 30 mins prior and 15 mins after arachidonic acid addition measured 60 mins post arachidonic acid challenge relative to control; format: functional
Mus musculus [7] = experiment: Antiinflammatory activity in arachidonic acid-induced ear dermatitis ICR mouse model assessed as reduction in ear swelling at 3 mg administered tropically 30 mins prior and 15 min after arachidonic acid addition measured 60 mins post arachidonic acid challenge relative to control; format: functional
Sus scrofa = organism: Sus scrofa; experiment: Displacement of [3H]-(+)-MK 801 from PCP binding site of NMDA receptor in pig brain cortex membranes at 10 uM after 120 mins by solid scintillation counting; format: cell membranes
Mus musculus [8] = experiment: (§1) Antiinflammatory activity in oxazolone-induced delayed type hypersensitivity BALB/c mouse model assessed as ear thickness at 0.5 mg applied topically on ear administered 3 hrs prior to oxazolone challenge on day 7 to 12 post sensitization followed by re-administration of compound on day 13 to 18 without oxazolone challenge measured on day 9 to 15; format: functional
Mus musculus [9] = experiment: as §1, with “hyperplastic epidrmis” for “ear thickness”, “0.5 and 2.5” for “0.5”, “19 by H and E staining based assay” for “9 to 15”; format: functional
Mus musculus [10] = experiment: as §1, with “reduction in edema formation” for “ear thickness”, “0.5 and 2.5” for “0.5”, “19 by H and E staining based assay” for “9 to 15”; format: functional
Mus musculus [11] = experiment: (§2) Antiinflammatory activity in oxazolone-induced delayed type hypersensitivity BALB/c mouse model assessed as effect on ear weight at 0.5 and 2.5 mg applied topically on ear administered 3 hrs prior to oxazolone challenge on day 7 to 12 post sensitization followed by re-administration of compound on day 13 to 18 without oxazolone challenge measured on day 19; format: functional
Mus musculus [12] = experiment: as §2, with “thickness” for “weight”, “19 by H and E staining based assay” for “19”; format: functional
Mus musculus [13] = experiment: as §1, with “2.5” for “0.5”; format: functional
Mus musculus [14] = experiment: as §1, with “measured after” for “measured on”, “day 16” for “day 9 to 15”; format: functional
Mus musculus [15] = experiment: Antiinflammatory activity in tropically applied arachidonic acid-induced ear dermatitis ICR mouse model assessed as reduction in ear swelling administered 30 mins prior and 15 mins after arachidonic acid addition measured 60 mins post arachidonic acid challenge; format: functional
[16] = target: T1, Kappa-type opioid receptor; experiment: Agonist activity at recombinant human kappa-type opioid receptor expressed in HEK293 cells at 1 uM after 30 mins by [35S]GTPgammaS binding assay; format: functional, cell-based
Mus musculus [17] = experiment: as §2, with “reduction in” for “effect on”, “0.1 to” for “0.5 and”; format: functional
Mus musculus [18] = experiment: Antiinflammatory activity in oxazolone-induced delayed type hypersensitivity BALB/c mouse model assessed as effect on histology changes at 0.1 to 2.5 mg applied topically on ear administered 3 hrs prior to oxazolone challenge on day 7 to 12 post sensitization followed by re-administration of compound on day 13 to 18 without oxazolone challenge measured daily prior to treatment from day 7 to 19 by H and E staining based assay; format: functional
Mus musculus [19] = experiment: as §2, with “reduction in” for “effect on”, “at” for “at 0.5 and”; format: functional
Mus musculus [20] = experiment: (§3) Antiinflammatory activity in tropically administered oxazolone-induced delayed type hypersensitivity BALB/c mouse model assessed as reduction in ear thickness administered 3 hrs prior to oxazolone challenge on day 7 to 12 post sensitization followed by re-administration of compound on day 13 to 18 without oxazolone challenge measured on day 19; format: functional
Mus musculus [21] = experiment: Antiinflammatory activity in tropically administered oxazolone-induced delayed type hypersensitivity BALB/c mouse model assessed as reduction in T-lymphocytes in ear administered 3 hrs prior to oxazolone challenge on day 7 to 12 post sensitization followed by re-administration of compound on day 13 to 18 without oxazolone challenge measured on day 19 by DAPI-staining based fluorescence microscopic analysis; format: functional, cell-based
Mus musculus [22] = experiment: as §3, with “effect on” for “reduction in”, “weight” for “thickness”; format: functional
Mus musculus [23] = experiment: Antiinflammatory activity in oxazolone-induced delayed type hypersensitivity BALB/c mouse model assessed as reduction in ear swelling at 2.5 mg applied topically on ear administered 3 hrs prior to oxazolone challenge on day 7 to 12 post sensitization followed by re-administration of compound on day 13 to 18 without oxazolone challenge measured daily prior to treatment from day 7 to 19; format: functional
Mus musculus [24] = experiment: (§4) Antiinflammatory activity in oxazolone-induced delayed type hypersensitivity BALB/c mouse model assessed as reduction in inflammatory infiltrate at 0.1 to 2.5 mg applied topically on ear administered 3 hrs prior to oxazolone challenge on day 7 to 12 post sensitization followed by re-administration of compound on day 13 to 18 without oxazolone challenge measured on day 19 by H and E based staining; format: functional
Rattus norvegicus [25] = organism: Rattus norvegicus; experiment: Displacement of [3H]-DTG from sigma 2 receptor in rat liver membranes at 1 uM after 120 mins by scintillation counting; format: cell membranes; conditions: Membrane
[26] = target: Sigma non-opioid intracellular receptor 1 (Cavia porcellus) (UniProt Q60492); experiment: Displacement of [3H]-(+)-pentazocine from sigma1-type […] receptor in guinea pig cortex membranes at 1 uM after 120 mins by solid scintillation counting; format: cell membranes
Mus musculus [27] = experiment: as §4, with “ear thickness” for “inflammatory infiltrate”; format: functional
Rattus norvegicus [28] = experiment: Toxicity in Wistar Han rat assessed as severe lethargy at 5 mg/kg, iv after 1 hr; format: organism-based; conditions: in vivo
Rattus norvegicus [29] = experiment: Toxicity in Wistar Han rat assessed as moderate extension spasms of the tail at 5 mg/kg, iv after 1 hr; format: organism-based; conditions: in vivo
Rattus norvegicus [30] = experiment: Toxicity in Wistar Han rat assessed as severe lethargy at 5 mg/kg, iv after 0.25 hrs; format: organism-based; conditions: in vivo
Rattus norvegicus [31] = experiment: Toxicity in Wistar Han rat assessed as moderate tonic spasms at 5 mg/kg, iv after 0.25 hrs; format: organism-based; conditions: in vivo
[32] = Ratio of drug level in brain to plasma in Wistar Han rat at 5 mg/kg, iv after 1 hr; format: ADME, organism-based; conditions: read-out: BPR
Rattus norvegicus [33] = experiment: Toxicity in Wistar Han rat assessed as moderate tonic spasms at 5 mg/kg, iv after 1 hr; format: organism-based; conditions: in vivo
Rattus norvegicus [34] = experiment: Toxicity in Wistar Han rat assessed as flat posture at 5 mg/kg, iv after 0.25 hrs; format: organism-based; conditions: in vivo
[35] = Drug level in Wistar Han rat brain at 5 mg/kg, iv measured 1 hr post compound administration; format: ADME, organism-based; conditions: read-out: Drug uptake
Rattus norvegicus [36] = experiment: Toxicity in Wistar Han rat assessed as severe cramped posture at 5 mg/kg, iv after 1 hr; format: organism-based; conditions: in vivo
Rattus norvegicus [37] = experiment: Toxicity in Wistar Han rat assessed as moderate extension spasms of the tail at 5 mg/kg, iv after 0.25 hrs; format: organism-based; conditions: in vivo
[38] = Plasma concentration in Wistar Han rat at 5 mg/kg, iv measured 1 hr post compound administration; format: ADME, organism-based
[39] = Plasma concentration in Wistar Han rat at 5 mg/kg, iv measured 0.25 hrs post compound administration; format: ADME, organism-based
Rattus norvegicus [40] = experiment: Toxicity in Wistar Han rat assessed as severe cramped posture at 5 mg/kg, iv after 0.25 hrs; format: organism-based; conditions: in vivo
Rattus norvegicus [41] = experiment: Toxicity in Wistar Han rat assessed as flat posture at 5 mg/kg, iv after 1 hr; format: organism-based; conditions: in vivo

T1 sequence (P41145 whole entry): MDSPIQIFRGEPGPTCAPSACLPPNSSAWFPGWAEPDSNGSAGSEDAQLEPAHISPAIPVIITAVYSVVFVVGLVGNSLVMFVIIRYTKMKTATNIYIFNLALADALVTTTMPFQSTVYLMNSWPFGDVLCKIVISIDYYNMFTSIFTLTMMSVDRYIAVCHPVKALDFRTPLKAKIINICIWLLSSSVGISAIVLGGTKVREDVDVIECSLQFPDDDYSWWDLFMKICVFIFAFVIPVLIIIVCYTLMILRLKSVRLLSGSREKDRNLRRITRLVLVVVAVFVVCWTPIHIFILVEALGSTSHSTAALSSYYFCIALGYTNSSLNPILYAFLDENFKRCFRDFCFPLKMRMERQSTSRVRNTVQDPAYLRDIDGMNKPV
Mu-type opioid receptor, sequence (P97266 whole entry): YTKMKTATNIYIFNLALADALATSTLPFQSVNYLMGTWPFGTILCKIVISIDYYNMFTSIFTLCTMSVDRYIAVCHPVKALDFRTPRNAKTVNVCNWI
Sigma non-opioid intracellular receptor 1 (Cavia porcellus), sequence (Q60492 whole entry): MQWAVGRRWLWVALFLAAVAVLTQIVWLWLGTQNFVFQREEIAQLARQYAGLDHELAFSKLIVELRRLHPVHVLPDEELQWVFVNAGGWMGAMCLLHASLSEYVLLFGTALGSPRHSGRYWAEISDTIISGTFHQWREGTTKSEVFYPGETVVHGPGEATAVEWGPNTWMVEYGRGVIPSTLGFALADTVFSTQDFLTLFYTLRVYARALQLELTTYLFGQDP
Kappa-type opioid receptor (Cavia porcellus, UniProt P41144), sequence (P41144 whole entry): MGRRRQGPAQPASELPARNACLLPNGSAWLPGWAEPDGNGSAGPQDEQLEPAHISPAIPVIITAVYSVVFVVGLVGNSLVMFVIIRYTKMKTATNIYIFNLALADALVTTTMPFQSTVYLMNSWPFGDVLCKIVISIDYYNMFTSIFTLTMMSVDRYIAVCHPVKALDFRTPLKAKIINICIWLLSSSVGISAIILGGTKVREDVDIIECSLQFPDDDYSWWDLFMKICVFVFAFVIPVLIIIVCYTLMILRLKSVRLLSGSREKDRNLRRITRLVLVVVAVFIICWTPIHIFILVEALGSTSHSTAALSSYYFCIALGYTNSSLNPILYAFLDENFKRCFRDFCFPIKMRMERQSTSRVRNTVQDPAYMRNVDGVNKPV

CN(C)S(=O)(=O)N1CCN(C(=O)Cc2ccc(Cl)c(Cl)c2)[C@@H]2[C@@H](N3CCCC3)CCC[C@@H]21
Ki [1]: 0.95 nM | Ki (Mu-type opioid receptor): 21 nM | Ki [2]: 2500 nM | Ki [3]: 11 nM | EC50 [4]: 2.2 nM

COc1ccc2c(c1)c(CC(=O)O)c(C)n2C(=O)c1ccc(Cl)cc1 [INDOMETHACIN]
inhibition (INH) (Mus musculus [5]): 38 - 65% | inhibition (INH) (Mus musculus [6]): 38 - 65% | inhibition (INH) (Mus musculus [7]): 38%

COC(=O)N1CCN(C(=O)Cc2ccc(Cl)c(Cl)c2)[C@@H]2[C@@H](N3CCCC3)CCC[C@@H]21
inhibition (Sus scrofa): 2% | Activity (Mus musculus [8]): inactive | Activity (Mus musculus [9]): Active | Activity (Mus musculus [10]): Active | Activity (Mus musculus [11]): inactive | Activity (Mus musculus [12]): inactive | Activity (Mus musculus [13]): Active | Activity (Mus musculus [14]): inactive | Activity (Mus musculus [15]): Dose-dependent effect

CS(=O)(=O)N1CCN(C(=O)Cc2ccc(Cl)c(Cl)c2)[C@@H]2[C@@H](N3CC[C@H](O)C3)CCC[C@@H]21
inhibition (Sus scrofa): 0% | Activity [16]: 106% | Activity (Mus musculus [17]): Dose-dependent effect | Activity (Mus musculus [18]): Active | Activity (Mus musculus [19]): Active | Activity (Mus musculus [20]): Dose-dependent effect | Activity (Mus musculus [21]): Dose-dependent effect | Activity (Mus musculus [22]): Dose-dependent effect | Activity (Mus musculus [23]): Active | Activity (Mus musculus [24]): Dose-dependent effect | inhibition (Rattus norvegicus [25]): 15% | inhibition [26]: 0% | Activity (Mus musculus [27]): Dose-dependent effect

COC(=O)N1CCN(C(=O)Cc2ccc(F)c(Cl)c2)[C@@H]2[C@@H](N3CC[C@H](F)C3)CCC[C@@H]21.Cl
Activity (Rattus norvegicus [28]): Toxic | Activity (Rattus norvegicus [29]): Toxic | Activity (Rattus norvegicus [30]): Toxic | Activity (Rattus norvegicus [31]): Toxic | Kp at 1 h [32]: 0.11 | Activity (Rattus norvegicus [33]): Toxic | Activity (Rattus norvegicus [34]): Toxic | concentration at 1 h [35]: 86.6 ng/g | Activity (Rattus norvegicus [36]): Toxic | Activity (Rattus norvegicus [37]): Toxic | concentration at 1 h [38]: 811 ng/mL | concentration at 0.25 h [39]: 3070 ng/mL | Activity (Rattus norvegicus [40]): Toxic | Activity (Rattus norvegicus [41]): Toxic
